Where two headings read alike, the source gives them in different places.
Assays:
Jurkat = assay: MTS proliferation assay, Jurkat; assay type: cell-based, human; conditions: 72 h incubation, read-out: MTS proliferation assay IC 50 Jurkat
Experimental: (§1) Cell lines are cultured in RPMI-1640 tissue culture medium containing either 5% or 10% fetal calf serum, 0.05 mM 2-mercaptoethanol, 2 mM glutamine and penicillin/streptomycin 50 μg/ml (complete medium) (Sigma, Buchs, Switzerland). General growth conditions are 37° C. and 7.5% CO2.
(§2) The following human cell lines (either EGFP transfected or not) are being used: HeLa (ATCC: CCL-2), KB (ATCC: CCL-17), MCF7 (ATCC: HTB-22), SK-BR-3 (ATCC: HTB-30), SK-Mel 1 (ATCC: HTB-67), SK-Mel 28 (ATCC: HTB-72), PC-3 (ATCC: CRL-1435), SW 480 (ATCC: CCL-228), NCl-H460 (ATCC: HTB-177), NCl-H1792 (ATCC: CRL-5895), HT1080 (ATCC: CCL-21), Jurkat (ATCC: TIB-152), Ramos (ATCC: CRL-1596), Raji (ATCC: CCL-86), H9 (ATCC: HTB-176), Hut78 (ATCC: TIB-161), K562 (ATCC: CCL 243), HL-60 (ATCC: CCL 240), U-87MG (ATCC: HTB-14), HepG2 (ATCC: HB-8065), U-2 OS (ATCC: HTB-96), Saos-2 (ATCC: HTB-85), U937 (ATCC: CRL 1593), Hs 578T (ATCC: HTB 126), HBL-100 (ATCC: HTB 124), Molt-4 (ATCC: CRL 1582).
(§3) The assay is performed in 96 well tissue culture plates. The cells (range: 1.5*10^3-10^4) are seeded out in 80 μl complete medium 24 h prior to compound treatment. The test compounds are added in 20 μl complete medium containing max 5% DMSO. The final compound concentrations in the assays are 10 μM, 3 μM, 1 μM and 0.3 μM, respectively. The assay plates are incubated for 72 h at culture conditions. The MTS reagent is prepared according to the manufacturer's protocol (Promega G1111). 20 μl MTS reagent are added to each well, the assay plates are quickly spun and incubated for another 3 h at culture conditions. Subsequently, the plates are shortly shaked and absorption measured with a microplate-reader at 492 nm.

HeLa = assay: MTS proliferation assay, HeLa; assay type: cell-based, human; conditions: 72 h incubation, read-out: MTS proliferation assay IC 50 HeLa
Experimental: as §1, §2, §3

MRC5 = assay: MTS proliferation assay, MRC5; assay type: cell-based; conditions: MRC5, 72 h incubation, read-out: MTS proliferation assay IC 50 MRC5
Experimental: as §1, §3

[1] = system: adherent cells or suspension cells; assay: Hoechst 33342 nuclear staining (fraction of apoptotic nuclei); assay type: cell-based; parameters: key: 0 relating to no activity; 1 relating to weak activity comprising less than 70% of the cells; score 2 relating to strong activity comprising more than 70% of the cells
Experimental: as §1
This assay is performed in 96 well tissue culture plates. Appropriate number of cells (adherent cells: 3-5*10^3, suspension cells: 8-10*10^3) are being seeded out in 80 μl complete medium. Adherent cells are incubated for 24 h for proper spreading out before addition of test compounds while suspension cells are immediately treated with test compounds after seeding out. The test compounds are added in 20 μl complete medium containing max 5% DMSO. […] After 24 h or 48 h incubation at culture conditions, 10 μl medium containing Hoechst 33342 dye (Sigma B-2261) at 2-5 μg/ml are added to each well. The assay plates are then further incubated for 30 minutes and subsequently analyzed with a standard inverted fluorescence microscope.
The readout allows the determination of the fraction of apoptotic nuclei as well as other morphological criteria specific for apoptosis as a function of the treatment. The following scores are used: 0 relating to no activity, 1 relating to weak activity comprising less than 70% of the cells and score 2 relating to strong activity comprising more than 70% of the cells.

Nc1nonc1-c1nc2ccccc2n1CC(=NO)c1ccc(-c2ccccc2)cc1 (mixture of isomers) [Example 27]
IC50 (Jurkat): > 1 µM | IC50 (HeLa): > 1 µM | IC50 (MRC5): > 1 µM | Hoechst 33342 nuclear staining score ([1]; H460, conc 0.01 μm): 0 | Hoechst 33342 nuclear staining score ([1]; H460, conc 0.1 μm): 0 | Hoechst 33342 nuclear staining score ([1]; H460, conc 1 μm): 0 | Hoechst 33342 nuclear staining score ([1]; HeLa, conc 0.01 μm): 0 | Hoechst 33342 nuclear staining score ([1]; HeLa, conc 0.1 μm): 0 | Hoechst 33342 nuclear staining score ([1]; HeLa, conc 1 μm): 0 | Hoechst 33342 nuclear staining score ([1]; Jurkat, conc 0.01 μm): 0 | Hoechst 33342 nuclear staining score ([1]; Jurkat, conc 0.1 μm): 0 | Hoechst 33342 nuclear staining score ([1]; Jurkat, conc 1 μm): 0 | Hoechst 33342 nuclear staining score ([1]; MRC5, conc 0.01 μm): 0 | Hoechst 33342 nuclear staining score ([1]; MRC5, conc 0.1 μm): 0 | Hoechst 33342 nuclear staining score ([1]; MRC5, conc 1 μm): 0 | Hoechst 33342 nuclear staining score ([1]; PBLs, conc 0.01 μm): 0 | Hoechst 33342 nuclear staining score ([1]; PBLs, conc 0.1 μm): 0 | Hoechst 33342 nuclear staining score ([1]; PBLs, conc 1 μm): 0

Nc1nonc1-c1nc2ccccc2n1CC(=NO)c1ccc(Br)cc1 [Example 2, 4-[1-(4-Bromophenacyl)-1H-benzimidazol-2-yl]-furazan-3-ylamine oxime]
IC50 (Jurkat; Homo sapiens): > 1 µM | IC50 (HeLa; Homo sapiens): > 1 µM | IC50 (MRC5; Homo sapiens): > 1 µM | Hoechst 33342 nuclear staining score ([1]; H460, conc 0.01 μm): 0 | Hoechst 33342 nuclear staining score ([1]; H460, conc 0.1 μm): 0 | Hoechst 33342 nuclear staining score ([1]; H460, conc 1 μm): 0 | Hoechst 33342 nuclear staining score ([1]; HeLa, conc 0.01 μm): 0 | Hoechst 33342 nuclear staining score ([1]; HeLa, conc 0.1 μm): 0 | Hoechst 33342 nuclear staining score ([1]; HeLa, conc 1 μm): 0 | Hoechst 33342 nuclear staining score ([1]; Jurkat, conc 0.01 μm): 0 | Hoechst 33342 nuclear staining score ([1]; Jurkat, conc 0.1 μm): 0 | Hoechst 33342 nuclear staining score ([1]; Jurkat, conc 1 μm): 0 | Hoechst 33342 nuclear staining score ([1]; MRC5, conc 0.01 μm): 0 | Hoechst 33342 nuclear staining score ([1]; MRC5, conc 0.1 μm): 0 | Hoechst 33342 nuclear staining score ([1]; MRC5, conc 1 μm): 0 | Hoechst 33342 nuclear staining score ([1]; PBLs, conc 0.01 μm): 0 | Hoechst 33342 nuclear staining score ([1]; PBLs, conc 0.1 μm): 0 | Hoechst 33342 nuclear staining score ([1]; PBLs, conc 1 μm): 0

Nc1nonc1-c1nc2ccccc2n1CC(=NO)c1ccc(Cl)cc1 (mixture of isomers) [Example 21]
IC50 (Jurkat): > 1 µM | IC50 (HeLa): > 1 µM | IC50 (MRC5): > 1 µM | Hoechst 33342 nuclear staining score ([1]; H460, conc 0.01 μm): 0 | Hoechst 33342 nuclear staining score ([1]; H460, conc 0.1 μm): 0 | Hoechst 33342 nuclear staining score ([1]; H460, conc 1 μm): 0 | Hoechst 33342 nuclear staining score ([1]; HeLa, conc 0.01 μm): 0 | Hoechst 33342 nuclear staining score ([1]; HeLa, conc 0.1 μm): 0 | Hoechst 33342 nuclear staining score ([1]; HeLa, conc 1 μm): 0 | Hoechst 33342 nuclear staining score ([1]; Jurkat, conc 0.01 μm): 0 | Hoechst 33342 nuclear staining score ([1]; Jurkat, conc 0.1 μm): 0 | Hoechst 33342 nuclear staining score ([1]; Jurkat, conc 1 μm): 0 | Hoechst 33342 nuclear staining score ([1]; MRC5, conc 0.01 μm): 0 | Hoechst 33342 nuclear staining score ([1]; MRC5, conc 0.1 μm): 0 | Hoechst 33342 nuclear staining score ([1]; MRC5, conc 1 μm): 0 | Hoechst 33342 nuclear staining score ([1]; PBLs, conc 0.01 μm): 0 | Hoechst 33342 nuclear staining score ([1]; PBLs, conc 0.1 μm): 0 | Hoechst 33342 nuclear staining score ([1]; PBLs, conc 1 μm): 0

CON=C(Cn1c(-c2nonc2N)nc2ccccc21)c1ccccc1 (mixture of isomers) [Example 18]
IC50 (Jurkat): 0.1 to 1 µM | IC50 (HeLa): > 1 µM | IC50 (MRC5): 0.1 to 1 µM | Hoechst 33342 nuclear staining score ([1]; H460, conc 0.01 μm): 0 | Hoechst 33342 nuclear staining score ([1]; H460, conc 0.1 μm): 0 | Hoechst 33342 nuclear staining score ([1]; H460, conc 1 μm): 1 (1 relating to weak activity comprising less than 70% of the cells) | Hoechst 33342 nuclear staining score ([1]; HeLa, conc 0.01 μm): 0 | Hoechst 33342 nuclear staining score ([1]; HeLa, conc 0.1 μm): 0 | Hoechst 33342 nuclear staining score ([1]; HeLa, conc 1 μm): 2 (score 2 relating to strong activity comprising more than 70% of the cells) | Hoechst 33342 nuclear staining score ([1]; Jurkat, conc 0.01 μm): 0 | Hoechst 33342 nuclear staining score ([1]; Jurkat, conc 0.1 μm): 0 | Hoechst 33342 nuclear staining score ([1]; Jurkat, conc 1 μm): 2 (score 2 relating to strong activity comprising more than 70% of the cells) | Hoechst 33342 nuclear staining score ([1]; MRC5, conc 0.01 μm): 0 | Hoechst 33342 nuclear staining score ([1]; MRC5, conc 0.1 μm): 0 | Hoechst 33342 nuclear staining score ([1]; MRC5, conc 1 μm): 1 (1 relating to weak activity comprising less than 70% of the cells) | Hoechst 33342 nuclear staining score ([1]; PBLs, conc 0.01 μm): 0 | Hoechst 33342 nuclear staining score ([1]; PBLs, conc 0.1 μm): 0 | Hoechst 33342 nuclear staining score ([1]; PBLs, conc 1 μm): 0

Source: USRE42890E1, “Furazanobenzimidazoles” (Basilea Pharmaceutica AG, priority 2003, dated 2011)
